Data as given in patent US20210038515A1 (Azurity Pharmaceuticals, Inc., priority 2014, published 2021).

Key:
[1] = test system: Bifidobacterium adolescentis; assay: Agar dilution test, other anaerobic organisms; assay type: cell-based; details: for MIC, AV (average): average of triplicate; for MIC, VAN-1: replicate 1; for MIC, VAN-2: replicate 2; for MIC, VAN-3: replicate 3
Bacteroides fragilis = assay: Agar dilution test, other anaerobic organisms; assay type: cell-based; details: for MIC, AV (average): average of triplicate; for MIC, VAN-1: replicate 1; for MIC, VAN-2: replicate 2; for MIC, VAN-3: replicate 3

CN[C@H](CC(C)C)C(=O)N[C@H]1C(=O)N[C@@H](CC(N)=O)C(=O)N[C@H]2C(=O)N[C@H]3C(=O)N[C@H](C(=O)N[C@H](C(=O)O)c4cc(O)cc(O)c4-c4cc3ccc4O)[C@H](O)c3ccc(c(Cl)c3)Oc3cc2cc(c3O[C@@H]2O[C@H](CO)[C@@H](O)[C@H](O)[C@H]2O[C@H]2C[C@](C)(N)[C@H](O)[C@H](C)O2)Oc2ccc(cc2Cl)[C@H]1O.Cl [Sigma]
1 µg/mL: MIC, AV (average) ([1]; Bif. adolescentis RMA 21317) | MIC, VAN-1 ([1]; Bif. adolescentis RMA 21317) | MIC, VAN-2 ([1]; Bif. adolescentis RMA 21317) | MIC, VAN-3 ([1]; Bif. adolescentis RMA 21317) | MIC, VAN-2 ([1]; Bif. adolescentis RMA 21531) | MIC, VAN-3 ([1]; Bif. adolescentis RMA 21531) | MIC, AV (average) ([1]; Bif. adolescentis RMA 21551) | MIC, VAN-1 ([1]; Bif. adolescentis RMA 21551) | MIC, VAN-2 ([1]; Bif. adolescentis RMA 21551) | MIC, VAN-3 ([1]; Bif. adolescentis RMA 21551) | MIC, AV (average) ([1]; Bif. adolescentis RMA 21680) | MIC, VAN-1 ([1]; Bif. adolescentis RMA 21680) | MIC, VAN-2 ([1]; Bif. adolescentis RMA 21680) | MIC, VAN-3 ([1]; Bif. adolescentis RMA 21680) | MIC, AV (average) ([1]; Bif. adolescentis RMA 21703) | MIC, VAN-1 ([1]; Bif. adolescentis RMA 21703) | MIC, VAN-2 ([1]; Bif. adolescentis RMA 21703) | MIC, VAN-3 ([1]; Bif. adolescentis RMA 21703)
0.5 µg/mL: MIC, VAN-1 ([1]; Bif. adolescentis RMA 21531)
3 µg/mL: MIC, AV (average) ([1]; Bif. adolescentis RMA 21531)
>16 µg/mL: MIC, AV (average) (Bacteroides fragilis; B. fragilis RMA 26978) | MIC, VAN-1 (Bacteroides fragilis; B. fragilis RMA 26978) | MIC, VAN-2 (Bacteroides fragilis; B. fragilis RMA 26978) | MIC, VAN-3 (Bacteroides fragilis; B. fragilis RMA 26978) | MIC, AV (average) (Bacteroides fragilis; B. fragilis RMA 26979) | MIC, VAN-1 (Bacteroides fragilis; B. fragilis RMA 26979) | MIC, VAN-2 (Bacteroides fragilis; B. fragilis RMA 26979) | MIC, VAN-3 (Bacteroides fragilis; B. fragilis RMA 26979) | MIC, AV (average) (Bacteroides fragilis; B. fragilis RMA 26980) | MIC, VAN-1 (Bacteroides fragilis; B. fragilis RMA 26980) | MIC, VAN-2 (Bacteroides fragilis; B. fragilis RMA 26980) | MIC, VAN-3 (Bacteroides fragilis; B. fragilis RMA 26980) | MIC, AV (average) (Bacteroides fragilis; B. fragilis RMA 26981) | MIC, VAN-1 (Bacteroides fragilis; B. fragilis RMA 26981) | MIC, VAN-2 (Bacteroides fragilis; B. fragilis RMA 26981) | MIC, VAN-3 (Bacteroides fragilis; B. fragilis RMA 26981) | MIC, AV (average) (Bacteroides fragilis; B. fragilis RMA 26982) | MIC, VAN-1 (Bacteroides fragilis; B. fragilis RMA 26982) | MIC, VAN-2 (Bacteroides fragilis; B. fragilis RMA 26982) | MIC, VAN-3 (Bacteroides fragilis; B. fragilis RMA 26982)
